What all share (details): Table 35
One test deals with MLKL (full length) (Homo sapiens (Human), UniProt Q8NB16). Briefly: KINOMEscan binding assay, MLKL (full length). The protocol: (§1) Kinase assays. For most assays, kinase-tagged T7 phage strains were grown in parallel in 24-well blocks in an E. coli host derived from the BL21 strain. E. coli were grown to log-phase and infected with T7 phage from a frozen stock (multiplicity of infection=0.4) and incubated with shaking at 32° C. until lysis (90-150 minutes).
(§2) The Hill Slope was set to −1.

The target in a further test is RIP1 (Homo sapiens (Human), UniProt Q13546). Briefly: KINOMEscan binding assay, RIP1.
For another test, the target named is RIP3 (Homo sapiens (Human), UniProt Q9Y572). The test is described as follows: KINOMEscan binding assay, RIP3. How it is done:
as §1, §2

Sequence of MLKL (full length) (Q8NB16 whole entry): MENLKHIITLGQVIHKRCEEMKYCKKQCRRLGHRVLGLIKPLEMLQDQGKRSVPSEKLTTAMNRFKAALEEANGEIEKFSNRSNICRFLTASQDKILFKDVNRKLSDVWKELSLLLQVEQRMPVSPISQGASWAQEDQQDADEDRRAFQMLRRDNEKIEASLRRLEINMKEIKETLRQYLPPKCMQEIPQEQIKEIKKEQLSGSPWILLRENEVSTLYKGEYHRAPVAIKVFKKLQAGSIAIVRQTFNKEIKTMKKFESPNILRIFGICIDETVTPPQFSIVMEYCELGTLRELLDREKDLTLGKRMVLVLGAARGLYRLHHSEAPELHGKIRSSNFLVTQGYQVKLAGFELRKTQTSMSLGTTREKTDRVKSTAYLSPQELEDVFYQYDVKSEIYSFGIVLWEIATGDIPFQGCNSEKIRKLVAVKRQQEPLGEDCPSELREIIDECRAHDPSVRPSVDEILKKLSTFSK
Sequence of RIP3 (Q9Y572 whole entry): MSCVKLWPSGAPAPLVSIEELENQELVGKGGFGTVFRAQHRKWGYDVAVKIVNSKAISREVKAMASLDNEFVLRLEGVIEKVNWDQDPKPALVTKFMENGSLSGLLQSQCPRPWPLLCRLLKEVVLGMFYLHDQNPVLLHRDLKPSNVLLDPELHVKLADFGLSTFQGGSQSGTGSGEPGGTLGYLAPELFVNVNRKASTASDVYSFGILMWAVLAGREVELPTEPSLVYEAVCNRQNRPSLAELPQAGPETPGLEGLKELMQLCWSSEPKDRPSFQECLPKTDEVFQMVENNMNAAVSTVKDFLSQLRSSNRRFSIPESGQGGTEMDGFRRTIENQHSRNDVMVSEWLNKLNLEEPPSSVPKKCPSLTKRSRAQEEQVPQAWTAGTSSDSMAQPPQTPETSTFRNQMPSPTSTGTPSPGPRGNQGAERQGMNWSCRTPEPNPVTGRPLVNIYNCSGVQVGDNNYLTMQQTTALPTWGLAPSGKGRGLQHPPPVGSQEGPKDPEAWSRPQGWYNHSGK
Sequence of RIP1 (Q13546 whole entry): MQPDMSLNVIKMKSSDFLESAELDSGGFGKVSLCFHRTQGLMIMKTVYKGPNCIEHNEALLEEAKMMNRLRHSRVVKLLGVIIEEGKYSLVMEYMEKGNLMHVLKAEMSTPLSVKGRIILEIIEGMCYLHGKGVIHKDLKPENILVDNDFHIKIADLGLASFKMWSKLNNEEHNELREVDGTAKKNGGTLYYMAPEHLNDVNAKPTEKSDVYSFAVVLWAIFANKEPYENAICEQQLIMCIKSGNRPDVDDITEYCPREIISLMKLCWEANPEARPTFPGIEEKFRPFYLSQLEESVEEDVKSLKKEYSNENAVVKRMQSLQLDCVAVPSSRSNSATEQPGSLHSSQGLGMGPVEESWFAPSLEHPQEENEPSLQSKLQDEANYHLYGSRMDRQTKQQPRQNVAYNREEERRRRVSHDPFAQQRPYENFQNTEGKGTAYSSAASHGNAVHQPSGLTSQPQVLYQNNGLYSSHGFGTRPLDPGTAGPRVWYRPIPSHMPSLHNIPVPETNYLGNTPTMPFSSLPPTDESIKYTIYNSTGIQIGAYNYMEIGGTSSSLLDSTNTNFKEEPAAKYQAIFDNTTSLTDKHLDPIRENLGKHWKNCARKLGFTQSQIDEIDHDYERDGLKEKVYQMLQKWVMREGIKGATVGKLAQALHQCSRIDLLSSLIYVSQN

The Kd is a measure of binding affinity in units of concentration. Low values mean higher affinity, high ones lower affinity. On to `CCS(=O)(=O)Nc1ccc(-c2n[nH]c(Nc3cnccn3)c2C(N)=O)cc1OCc1ccc(F)c(F)c1` [Compound 1, 3-(3-((3,4-difluorobenzyl)oxy)-4-(ethylsulfonamido)phenyl)-5-(pyrazin-2-ylamino)-1H-pyrazole-4-carboxamide], for which the Kd is less than 0.01 µM at MLKL (full length), more than 30 µM on RIP1 and more than 30 µM at RIP3.

As for `CC(C)(C)n1nc(-c2ccc(N)c(OCc3ccc(F)cc3)c2)c(C(N)=O)c1Nc1cccc(C(F)(F)F)n1` [Compound 5, 3-(4-amino-3-((4-fluorobenzyl)oxy)phenyl)-1-(tert-butyl)-5-((6-(trifluoromethyl)pyridin-2-yl)amino)-1H-pyrazole-4-carboxamide], the results for the dissociation constant (Kd) on MLKL (full length), on RIP1 and on RIP3 were 0.01 to 1 µM, more than 30 µM and more than 30 µM, respectively.

Consider `CCS(=O)(=O)Nc1ccc(-c2n[nH]c(Nc3cccc(OC)n3)c2C(N)=O)cc1OCc1ccc(F)cc1` [Compound 11, 3-(4-(ethylsulfonamido)-3-((4-fluorobenzyl)oxy)phenyl) 5-((6-methoxypyridin-2-yl)amino)-1H-pyrazole-4-carboxamide], for which the Kd was less than 0.01 µM on MLKL (full length), more than 30 µM at RIP1 and more than 30 µM on RIP3.

For the compound `CCS(=O)(=O)Nc1ccc(-c2n[nH]c(Nc3cnc(OC)cn3)c2C(N)=O)cc1OCc1ccc(F)cc1` [Compound 14, 3-(4-(ethylsulfonamido)-3-((4-fluorobenzyl)oxy)phenyl) 5-((5-methoxypyrazin-2-yl)amino)-1H-pyrazole-4-carboxamide], the Kd on MLKL (full length) was less than 0.01 µM; at RIP1, more than 30 µM; at RIP3 it was more than 30 µM.

With `CCS(=O)(=O)Nc1ccc(-c2n[nH]c(Nc3cncc(OC)n3)c2C(N)=O)cc1OCc1ccc(F)cc1` [Compound 15, 3-(4-(ethylsulfonamido)-3-((4-fluorobenzyl)oxy)phenyl) 5-((6-methoxypyrazin-2-yl)amino)-1H-pyrazole-4-carboxamide], the Kd was less than 0.01 µM at MLKL (full length), more than 30 µM on RIP1 and more than 30 µM on RIP3.

With `CCS(=O)(=O)Nc1ccc(-c2n[nH]c(Nc3cncc(C(F)(F)F)n3)c2C(N)=O)cc1OCc1ccc(F)cc1` [Compound 17, 3-(4-(ethylsulfonamido)-3-((4-fluorobenzyl)oxy)phenyl)5-((6-(trifluoromethyl)pyrazin-2-yl)amino)-1H-pyrazole-4-carboxamide], the equilibrium dissociation constant (Kd) on MLKL (full length) was less than 0.01 µM; at RIP1, more than 30 µM; at RIP3, more than 30 µM.

`CCS(=O)(=O)Nc1ccc(-c2n[nH]c(Nc3ccccn3)c2C(N)=O)cc1OCc1ccccc1` [Compound 20, 3-(3-(benzyloxy)-4-(ethylsulfon-amido)phenyl)-5-(pyridin-2-ylamino)-1H-pyrazole-4-carboxamide]: the figures for the dissociation constant Kd on MLKL (full length), at RIP1 and at RIP3 were less than 0.01 µM, more than 30 µM and more than 30 µM, respectively.

Turning to `CCS(=O)(=O)Nc1ccc(-c2n[nH]c(Nc3cnccn3)c2C(N)=O)c(OCc2ccc(F)cc2)c1` [Compound 21, 3-(4-(ethylsulfonamido)-2-((4-fluorobenzyl)oxy)phenyl)-5-(pyrazin-2-ylamino)-1H-pyrazole-4-carboxamide], the figures for the Kd on MLKL (full length), on RIP1 and at RIP3 were less than 0.01 µM, more than 30 µM and more than 30 µM, respectively.

As to `NC(=O)c1c(-c2ccc(NS(=O)(=O)CCC(F)F)cc2)n[nH]c1Nc1cnccn1` [Compound 23, 3-(4-((3,3-difluoropropyl)sulfonamido)phenyl)-5-(pyrazin-2-ylamino)-1H-pyrazole-4-carboxamide], the results for the Kd on MLKL (full length), on RIP1 and at RIP3 were less than 0.01 µM, more than 30 µM and more than 30 µM, respectively.

For `CCS(=O)(=O)Nc1ccc(-c2n[nH]c(Nc3cnccn3)c2C(N)=O)cc1OCCc1ccc(F)cc1` [Compound 24], the equilibrium dissociation constant (Kd) on MLKL (full length) is less than 0.01 µM; on RIP1, more than 30 µM; at RIP3 it was more than 30 µM.

Values taken from patent US20250074891A1 (Anaxis Pharma Pty Ltd., priority 2021, published 2025).
